Laboratory results reported in US10106515B2, “1-(cyclopent-2-en-1-yl)-3-(2-hydroxy-3-(arylsulfonyl)phenyl)urea derivatives as CXCR2 inhibitors” (GLAXOSMITHKLINE INTELLECTUAL PROPERTY DEVELOPMENT LIMITED, priority 2014, dated 2018).
Where a name gives a salt, the structure may show the parent alone.

Assays:
recombinant human CXCR2 = target: T1, recombinant human CXCR2 (Homo sapiens, UniProt P25025); experiment: CXCR2 Tango assay; assay type: cell-based; details: mean pIC50 of multiple test results; stimulated with 80 nM hCXCL1; reporter gene blue/green emission ratio; read-out: pIC50 (CXCR2 Tango assay) (converted)
T1 construct: TEV protease site; Gal4-VP16 transcription factor
T1 sequence (P25025 1-360): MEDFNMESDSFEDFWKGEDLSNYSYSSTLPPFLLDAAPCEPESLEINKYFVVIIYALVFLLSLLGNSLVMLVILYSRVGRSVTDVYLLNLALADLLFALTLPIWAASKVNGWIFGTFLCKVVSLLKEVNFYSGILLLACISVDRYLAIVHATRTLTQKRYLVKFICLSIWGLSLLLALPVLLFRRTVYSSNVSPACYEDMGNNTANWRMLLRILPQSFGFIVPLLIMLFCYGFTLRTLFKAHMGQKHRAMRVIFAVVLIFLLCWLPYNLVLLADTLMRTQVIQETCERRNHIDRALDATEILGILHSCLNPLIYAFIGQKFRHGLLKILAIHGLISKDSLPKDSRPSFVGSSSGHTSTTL
How it was run: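 A stable cell line carries human CXCR2 fused to a TEV site and Gal4-VP16, with protease-tagged arrestin. Cells (~10,000/well) were stimulated overnight at 37 °C with 80 nM hCXCL1 and a 10-point compound dilution. CCF4-AM beta-lactamase FRET (460/530 nm ratio) was read, normalized to hCXCL1 and DMSO, and mean pIC50 reported.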

[1] = test system: upregulation of CD11b in GROα stimulated neutrophils in human whole blood; experiment: Human whole blood assay (CD11b upregulation); assay type: cell-based; details: Neutrophil, inhibition of CD11b upregulation, GROα 33 nM final, flow cytometry, read-out: pIC50 (human whole blood assay) (converted)
Experimental: The whole blood assay tested the compounds' ability to inhibit the upregulation of CD11b in GROα stimulated neutrophils in human whole blood.
Blood was withdrawn by venipuncture from consented adults and poured into a Sterilin tube containing an anti-coagulant Heparin (10 uL/mL of blood). All the test compounds were dissolved in DMSO to 4 mM and serial diluted across the plate, 1 in 3 to provide 10 point dose response curves. The compounds were then diluted 100 fold in -PBS [Phosphate buffered saline (without Calcium Chloride and Magnesium Chloride)] after which, 1 uL was dispensed in 96 U bottom Costar plates using an FX.
10 uL of blood was transferred to the compound plate using a multi-channel pipette, gently tapped and incubated for 15 minutes, at 37° C. After 15 minutes, the stimulant GROα was diluted to 100 nM in 0.1% BSA (Albumin Bovine Serum)-PBS and 5 uL is dispensed across the whole plate for a final concentration of 33 nM. The plate was gently tapped and incubated further for 15 minutes at 37° C. The plate was placed on ice for 1 minute before addition of 10 uL of an antibody cocktail consisting of CD11b-FITC (40 ug/mL) purchased from BioLegend (address: Cambridge Bioscience, Munro House, Trafalgar Way, Bar Hill, Cambridge, UK) and CD16-PE purchased from BD Pharmingen (address: The Danby Building, Edmung Halley Road, Oxford Science Park, Oxford, UK) (stock concentration 100 tests, 2 mL stock volume is diluted 1 in 5). The plate was placed on ice for 1 hour in the dark. The cells were then fixed using 200 uL/well of 1×FACS (Flow Activated Cell Sorting) Lyse solution (Becton and Dickinson-BD) and on ice for 20 minutes in the dark. The plate was centrifuged at 1600 rpm for 5 minutes and re-suspended with 200 uL of ice cold PBS. This step was repeated twice and on the final step the plate was re-suspended with 50 uL of ice cold -PBS for flow Cytometric analysis.
Samples were run on a Becton and Dickinson (BD)-Acurri C6 Flow Cytometer using a HyperCyt sampling apparatus (IntelliCyt) with a flow rate 2 uL/sec. CD11b upregulation is monitored in neutrophils and identified using a combination of both side scatter and CD16 expression.

SMILES	IC50 (recombinant human CXCR2)	IC50 [1]
CC1=CCC[C@H]1NC(=O)Nc1ccc(Cl)c(S(=O)(=O)C2CCN(C3CCC3)CC2)c1O [Compound 82, (R)-1-(4-chloro-3-((1-cyclobutylpiperidin-4-yl)sulfonyl)-2-hydroxyphenyl)-3-(2-methylcyclopent-2-en-1-yl)urea trifluoroacetic acid salt]	≤ 1 nM	25.1 to 2510 nM
CC1=CCC[C@H]1NC(=O)Nc1ccc(Cl)c(S(=O)(=O)n2ccc3cccnc32)c1O [Compound 90, (R)-1-(3-((1H-pyrrolo[2,3-b]pyridin-1-yl)sulfonyl)-4-chloro-2-hydroxyphenyl)-3-(2-methylcyclopent-2-en-1-yl)urea]	≤ 1 nM	25.1 to 2510 nM
CC1=CCC[C@H]1NC(=O)Nc1ccc(Cl)c(S(=O)(=O)N2CCN3CCC[C@@]3(C)C2)c1O [Compound 93, 1-(4-chloro-2-hydroxy-3-(((S)-8a-methylhexahydro-pyrrolo[1,2-a]pyrazin-2(1H)-yl)sulfonyl)phenyl)-3-((R)-2-methylcyclopent-2-en-1-yl)urea, trifluoroacetic acid salt]	≤ 10 nM	25.1 to 2510 nM
CC(C)(C)S(=O)(=O)c1c(C#N)ccc(NC(=O)N[C@@H]2CCC=C2Cl)c1O [Compound 94, (R)-1-(3-(tert-butylsulfonyl)-4-cyano-2-hydroxyphenyl)-3-(2-chlorocyclopent-2-en-1-yl)urea]	≤ 1 nM	25.1 to 2510 nM
CC1=CCCC1NC(=O)Nc1ccc(Cl)c(S(=O)(=O)C(C)(C)CF)c1O (stereo not shown) [Compound 104, 1-(4-chloro-3-((1-fluoro-2-methylpropan-2-yl)sulfonyl)-2-hydroxyphenyl)-3-(2-methylcyclopent-2-en-1-yl)urea]	≤ 10 nM	25.1 to 2510 nM
CC1=CCCC1NC(=O)Nc1ccc(Cl)c(S(=O)(=O)C2(C)CCOCC2)c1O (stereo not shown) [Compound 107, 1-(4-chloro-2-hydroxy-3-((4-methyltetrahydro-2H-pyran-4-yl)sulfonyl)phenyl)-3-(2-methylcyclopent-2-en-1-yl)urea]	≤ 10 nM	25.1 to 2510 nM
CC1=CCCC1NC(=O)Nc1ccc(Cl)c(S(=O)(=O)C2CCOCC2)c1O (stereo not shown) [Compound 110, 1-(4-chloro-2-hydroxy-3-((tetrahydro-2H-pyran-4-yl)sulfonyl)phenyl)-3-(2-methylcyclopent-2-en-1-yl)ureac]	≤ 10 nM	25.1 to 2510 nM
CC1=CCCC1NC(=O)Nc1ccc(Cl)c(S(=O)(=O)N2CC(F)C2)c1O (stereo not shown) [Compound 112, 1-(4-chloro-3-((3-fluoroazetidin-1-yl)sulfonyl)-2-hydroxyphenyl)-3-(2-methylcyclopent-2-en-1-yl)urea]	≤ 10 nM	25.1 to 2510 nM
CC1=CCCC1NC(=O)Nc1ccc(Cl)c(S(=O)(=O)N2CCC(F)(F)C2)c1O (stereo not shown) [Compound 114, 1-(4-chloro-3-((3,3-difluoropyrrolidin-1-yl)sulfonyl)-2-hydroxyphenyl)-3-(2-methylcyclopent-2-en-1-yl)urea, trifluoroacetic acid salt]	≤ 10 nM	25.1 to 2510 nM

Second part, the molecule after the results:

IC50 (recombinant human CXCR2)	IC50 [1]	SMILES
≤ 1 nM	25.1 to 2510 nM	CCC1(S(=O)(=O)c2c(Cl)ccc(NC(=O)N[C@@H]3CCC=C3C)c2O)CCOCC1 [Compound 119, (R)-1-(4-chloro-3-((4-ethyltetrahydro-2H-pyran-4-yl)sulfonyl)-2-hydroxyphenyl)-3-(2-methylcyclopent-2-en-1-yl)urea]
≤ 1 nM	25.1 to 2510 nM	COC[C@@H](C)S(=O)(=O)c1c(Cl)ccc(NC(=O)N[C@@H]2CCC=C2C)c1O [Compound 122, 1-(4-chloro-2-hydroxy-3-(((R)-1-methoxypropan-2-yl)sulfonyl)phenyl)-3-((R)-2-methylcyclopent-2-en-1-yl)urea]
≤ 1 nM	25.1 to 2510 nM	CC1=CCC[C@H]1NC(=O)Nc1ccc(C#N)c(S(=O)(=O)C(C)(C)F)c1O [Compound 123, (R)-1-(4-cyano-3-((2-fluoropropan-2-yl)sulfonyl)-2-hydroxyphenyl)-3-(2-methylcyclopent-2-en-1-yl)urea]
≤ 10 nM	25.1 to 2510 nM	CC1=CCC[C@H]1NC(=O)Nc1ccc(Cl)c(S(=O)(=O)C(F)(F)CN(C)C)c1O [Compound 136, (R)-1-(4-chloro-3-((2-(dimethylamino)-1,1-difluoroethyl)sulfonyl)-2-hydroxyphenyl)-3-(2-methylcyclopent-2-en-1-yl)urea]
≤ 10 nM	25.1 to 2510 nM	CC1=CCC[C@H]1NC(=O)Nc1ccc(Cl)c(S(=O)(=O)N2CCN(C)CC2)c1O [Compound 141, (R)-1-(4-chloro-2-hydroxy-3-((4-methylpiperazin-1-yl)sulfonyl)phenyl)-3-(2-methylcyclopent-2-en-1-yl)urea, trifluoroacetic acid salt]
≤ 10 nM	25.1 to 2510 nM	CC1=CCCC1NC(=O)Nc1ccc(Cl)c(S(=O)(=O)N2CCN(C)CC2)c1O (stereo not shown) [Compound 142, 1-(4-chloro-2-hydroxy-3-((4-methylpiperazin-1-yl)sulfonyl)phenyl)-3-(2-methylcyclopent-2-en-1-yl)urea, trifluoroacetic acid salt]
≤ 1 nM	25.1 to 2510 nM	CO[C@H]1C[C@@H](S(=O)(=O)c2c(Cl)ccc(NC(=O)N[C@@H]3CCC=C3C)c2O)C1 [Compound 146, 1-(4-chloro-2-hydroxy-3-((cis-3-methoxycyclobutyl)sulfonyl)phenyl)-3-((R)-2-methylcyclopent-2-en-1-yl)urea]
≤ 10 nM	25.1 to 2510 nM	CO[C@H]1COC[C@@H]1S(=O)(=O)c1c(Cl)ccc(NC(=O)N[C@@H]2CCC=C2C)c1O [Compound 151, 1-(4-chloro-2-hydroxy-3-(((3S,4S)-4-methoxytetrahydro-furan-3-yl)sulfonyl)phenyl)-3-((R)-2-methylcyclopent-2-en-1-yl)urea]
≤ 10 nM	25.1 to 2510 nM	COCC(C)S(=O)(=O)c1c(Cl)ccc(NC(=O)N[C@@H]2CCC=C2C)c1O (stereo partly drawn) [Compound 158, 1-(4-chloro-2-hydroxy-3-((1-methoxypropan-2-yl)sulfonyl)phenyl)-3-((R)-2-methylcyclopent-2-en-1-yl)urea]
≤ 10 nM	25.1 to 2510 nM	O=C(Nc1ccc(Cl)c(S(=O)(=O)[C@H]2C[C@@H](O)C2)c1O)NC1CCC=C1Cl (stereo partly drawn) [Compound 165, 1-(4-chloro-2-hydroxy-3-((cis-3-hydroxycyclobutyl)sulfonyl)phenyl)-3-(2-chlorocyclopent-2-en-1-yl)urea]
≤ 10 nM	25.1 to 2510 nM	CN(C)[C@H]1C[C@H](S(=O)(=O)c2c(Cl)ccc(NC(=O)N[C@@H]3CCC=C3Cl)c2O)C1 [Compound 184, 1-(4-chloro-3-((trans-3-(dimethylamino)cyclobutyl)sulfonyl)-2-hydroxyphenyl)-3-((R)-2-chlorocyclopent-2-en-1-yl)urea, trifluoroacetic acid salt]
≤ 10 nM	25.1 to 2510 nM	O=C(Nc1ccc(Cl)c(S(=O)(=O)[C@H]2C[C@H](N3CCCC3)C2)c1O)N[C@@H]1CCC=C1Cl [Compound 185, 1-(4-chloro-2-hydroxy-3-((trans-3-(pyrrolidin-1-yl)cyclobutyl)sul-fonyl)phenyl)-3-((R)-2-chlorocyclopent-2-en-1-yl)urea, trifluoroacetic acid salt]
≤ 1 nM	25.1 to 2510 nM	COC[C@H](C)S(=O)(=O)c1c(Cl)ccc(NC(=O)N[C@@H]2CCC=C2C)c1O [Compound 186, 1-(4-chloro-2-hydroxy-3-(((S)-1-methoxypropan-2-yl)sulfonyl)phenyl)-3-((R)-2-methylcyclopent-2-en-1-yl)urea]
≤ 1 nM	25.1 to 2510 nM	CC1=CCC[C@H]1NC(=O)Nc1ccc(C#N)c(S(=O)(=O)C(C)(C)C)c1O [Compound 191, (R)-1-(3-(tert-butylsulfonyl)-4-cyano-2-hydroxyphenyl)-3-(2-methylcyclopent-2-en-1-yl)urea]
